Measured values: article PMC10763578 (Cell host & microbe, 2023)

Target: CgaA (cytosolic glutathione amidotransferase A; FTN_0435) (Francisella tularensis, UniProt A0Q523)
Conditions: 10 mM substrate, 1 uM enzyme, 60 min, 300 mM NaCl, 50 mM Tris-Cl pH 8.5, 37 °C

Chain of CgaA (cytosolic glutathione amidotransferase A; FTN_0435) (A0Q523 1-235): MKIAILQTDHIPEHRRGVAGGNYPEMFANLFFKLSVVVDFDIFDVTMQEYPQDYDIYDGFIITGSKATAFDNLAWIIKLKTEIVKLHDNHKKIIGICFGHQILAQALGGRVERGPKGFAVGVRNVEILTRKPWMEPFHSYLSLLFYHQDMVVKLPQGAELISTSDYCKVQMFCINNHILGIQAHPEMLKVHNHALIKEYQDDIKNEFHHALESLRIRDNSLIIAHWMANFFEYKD

SMILES: NC(=O)CC[C@H](N)C(=O)O [Gln, glutamine]
- glutamate release, coupled colorimetric kit (A450): we detected only a low level of glutamate accumulation following incubation of CgaA with glutamine
